Values joined by “and” are separate entries in the source; they are usually repeats but may differ in a detail not shown here. Equal entries are not always repeated.

One data set has as its system cells. In words: Delivery of fluorescent protein encoding mRNA and plasmid DNA into cells (FIG. 50). The format is cell-based. The settings on record: 14 nM 1-Nap-Phe-DAP, 24 hours. As to the method: FIG. 50 has images of cells treated with a mixture of 1-Nap-Phe-DAP with fluorescent protein encoding mRNA (panel A) and plasmid DNA (panel B). […] In this example, 14 nM of the 1-Nap-Phe-DAP was used with 1 microgram of mRNA or pDNA for 24 hours, after which the cells were images.

Data set [1] can be described thus: Dynamic light scattering of N-X-Phe-DAP/siRNA nanoparticles. The class given is physicochemical. The settings on record: for Diameter (nm), DLS: N-X-Phe-DAP/siRNA nanoparticles, 5 μM derivative, 30 nM siRNA, ± standard deviation. As to the method:
Each N-X-Phe-DAP derivative (100 μM) was mixed with siRNA (600 nM) in H2O for 30 minutes, followed by dilution of this mixture into DMEM cell culture media to final concentrations of 5 μM N-X-Phe-DAP derivative and 30 nM siRNA. Dynamic light scattering (DLS) and transmission electron microscopy (TEM) were utilized to analyze the physical characteristics of the resulting N-X-Phe-DAP/siRNA nanoparticles (Table 2, FIG. 4). […] Average diameter (nm), determined by dynamic light scattering (DLS) and TEM imaging, is reported as the average of […] with the error reported as the standard deviation of the mean. Binding affinity (Kd) of each agent to siRNA was determined by a slot blot filtration assay with values reported as the average of three measurements and error reported as the standard deviation of the mean. […] (B) Diameter (nm) determined by TEM (n=9, ***p≤0.001 ****p≤0.0001).
Dynamic Light Scattering: N-X-Phe-DAP derivatives (100 μM) were complexed with siRNA (600 nM) in Ultrapure™ DNase/RNase-Free Distilled Water (Invitrogen 10977015) and allowed to incubate for 30 minutes at room temperature. These solutions were then diluted into water to give final concentrations of 5 μM Phe derivative and 30 nM siRNA. Dynamic light scattering measurements were taken using a DynaPro Plate Reader II. Diameter is reported as an average of 10 measurements using Dynamics software.

Another data set has as its system A549 cells. In words: MTT cytotoxicity assay. The settings on record: normalized to naïve control, ± SEM. The class given is cell-based, human. As for the experimental part: A549 cells were dosed with 100 µM of these derivatives for 4 h (FIG. 7A), 24 h (FIG. 7B), and 48 h (FIG. 7C). FIG. 7 reports cell viability as percent viability of A549 cells normalized to naïve control. (A) Cell viability after 4 h dosing (n=3, *p≤0.05, **p≤0.01). (B) Cell viability after 24 h dosing (n=3, *p≤0.05, **p≤0.01). (C) Cell viability after 48 h dosing (n=3, *p≤0.05, **p≤0.01, ****p≤0.0001). […] An MTT assay was performed after dosing for 4 h, 24 h, 48 h, or 4 h with media change and additional 48 h incubation. Average values are reported with calculated standard error of the mean (SEM).
The cells will also recover after exposure to N-X-Phe-DAP derivatives under conditions that resemble knockdown experiments. Cells were dosed with N-X-Phe-DAP derivatives or Lipofectamine for 4 hours, after which the media was aspirated and replaced with DMEM cell culture media and incubated for an additional 48 hours (FIG. 8). This protocol mimics the gene knockdown experiments and acts as a better indication of how cytotoxicity may impact gene silencing measurements.
Sample Preparation for Cell-Based Experiments: For delivery analysis and functional knockdown, N-X-Phe-DAP derivatives (10 μL, 1 mM) or Lipofectamine 3000 (6 μL) was mixed with TTF-1 siRNA (Santa Cruz Biotechnology sc-36756, 6 μL, 10 μM) in Ultrapure™ DNase/RNase-Free Distilled Water (Invitrogen 10977015) to give a final volume of 100 μL. These mixtures were incubated for 30 minutes at room temperature, followed by dilution into 1×DMEM (Gibco 11965092, 1.9 mL). For cytotoxicity assays, N-X-Phe-DAP derivatives (10 μL, 1 mM) were diluted into 1×DMEM (Gibco 11965092, 1.9 mL).
MTT Cytotoxicity Assay: All cytotoxicity assays were performed in triplicate. A549 cells were seeded at a density of 2400 cells/well in a 96-well plate (200 μL) and grown to 70-90% confluency. Cells were washed with 1×PBS (200 μL), N-X-Phe-DAP derivatives were added (200 μL/well), and incubated 4 h, 24 h, or 48 h at 37° C., 5% CO2 or for 4 h at 37° C., 5% CO2 followed by washing with 1×PBS and addition of complete media containing 1×DMEM (Gibco 11965092), 10% fetal bovine serum (FBS, Invitrogen 26140087), and 1× antibiotic-antimycotic (Gibco 15240-062). A solution of thiazoyl blue tetrazolium bromide (MTT, 1 mg/mL) was prepared in 1×DMEM devoid of phenol red (Invitrogen 31053028). After the appropriate incubation time, cells were washed with 1×PBS, dosed with MTT (200 μL), and incubated an additional 1 h at 37° C., 5% C02 in the dark. The 96-well plate was centrifuged for 5 min at 4000 rpm, the media was aspirated, and DMSO (100 μL) was added to the wells. Absorbance measurements (550 nm) were taken on a Tecan Infinite M1000 Pro plate reader. Cell viability was then calculated and normalized to the naïve control.

On to `NCCCNC(=O)[C@H](Cc1ccccc1)NC(=O)Cc1cccc2ccccc12` [1-Nap-Phe-DAP], for which, in the data set with cells (1 microgram mRNA, FIG. 50 panel A), the “delivery of fluorescent protein encoding mRNA into cells” value was “fluorescence visible in the cytosol”. In addition, the “delivery of plasmid DNA into cells” value with cells (1 microgram pDNA, FIG. 50 panel B) is “fluorescence visible in the cytosol”. In addition, the “Diameter (nm), DLS” value in data set [1] turned out to be 221 ± 26 nm. Besides, in the data set with A549 cells, the “Cell Viability (%) 4 h Dosing” value turned out to be 65.3 ± 3.7%, the “Cell Viability (%) 24 h Dosing” value stood at 69.5 ± 5.9%, the “Cell Viability (%) 48 h Dosing” value is recorded as 45.1 ± 3.1% and the “Cell Viability (%) Media Change After 4 h Followed by 48 h Incubation” value turned out to be 56.5 ± 1.1%.
As to `NCCCNC(=O)[C@H](Cc1ccccc1)NC(=O)Cc1ccc2ccccc2c1` [2-Nap-Phe-DAP], the “Diameter (nm), DLS” value in data set [1] was determined as 416 ± 33 nm. In the data set with A549 cells, the “Cell Viability (%) 4 h Dosing” value is listed as 50.4 ± 1.5%, the “Cell Viability (%) 24 h Dosing” value is listed as 58.3 ± 6.0%, the “Cell Viability (%) 48 h Dosing” value is 44.3 ± 8.7% and the “Cell Viability (%) Media Change After 4 h Followed by 48 h Incubation” value was found to be 60.7 ± 1.6%.
On to `NCCCNC(=O)[C@H](Cc1ccccc1)NC(=O)OCc1ccccc1` [Cbz-Phe-DAP], for which, in data set [1], the “diameter of siRNA nanoparticles by DLS and TEM measurements” value is roughly 100 nm; the “Diameter (nm), DLS” value was 94 ± 14 nm. Moreover, in the data set on A549 cells, the “Cell Viability (%) 4 h Dosing” value is 60.8 ± 3.8%, the “Cell Viability (%) 24 h Dosing” value was found to be 69.8 ± 8.2%, the “Cell Viability (%) 48 h Dosing” value was 53.7 ± 3.0% and the “Cell Viability (%) Media Change After 4 h Followed by 48 h Incubation” value is given as 50.2 ± 3.4%.
As to `NCCCNC(=O)[C@H](Cc1ccccc1)NC(=O)C1CCCCC1` [Cyc-Phe-DAP], in data set [1], the “diameter of siRNA nanoparticles by DLS and TEM measurements” value is roughly 100 nm; the “Diameter (nm), DLS” value is listed as 125 ± 74 nm. For the same molecule, in the data set on A549 cells, the “Cell Viability (%) 4 h Dosing” value amounted to 58.3 ± 9.2%; the “Cell Viability (%) 24 h Dosing” value is reported as 59.6 ± 4.9%; the “Cell Viability (%) 48 h Dosing” value was found to be 60.4 ± 2.6%; the “Cell Viability (%) Media Change After 4 h Followed by 48 h Incubation” value was 67% and 66.5 ± 5.1%.
For `NCCCNC(=O)[C@H](Cc1ccccc1)NC(=O)CC1c2ccccc2-c2ccccc21` [Fm-Phe-DAP], in data set [1], the “Diameter (nm), DLS” value came to 139 ± 14 nm. Moreover, in the data set on A549 cells, the “Cell Viability (%) 4 h Dosing” value was determined as 60.7 ± 3.6%, the “Cell Viability (%) 24 h Dosing” value was 51.7 ± 4.4%, the “Cell Viability (%) 48 h Dosing” value amounted to 26.7 ± 4.0% and the “Cell Viability (%) Media Change After 4 h Followed by 48 h Incubation” value came to 72.6 ± 7.4%.
For `NCCCNC(=O)[C@H](Cc1cccc(F)c1)NC(=O)OCC1c2ccccc2-c2ccccc21` [Fmoc-3F-Phe-DAP], the “Diameter (nm), DLS” value in data set [1] is 228 ± 18 nm. In the data set on A549 cells, the “Cell Viability (%) 4 h Dosing” value is on record as 59.9 ± 3.8%, the “Cell Viability (%) 24 h Dosing” value came to 75.3 ± 5.0%, the “Cell Viability (%) 48 h Dosing” value came to 42.0 ± 2.4% and the “Cell Viability (%) Media Change After 4 h Followed by 48 h Incubation” value is given as 71.1 ± 6.3%.
As to `NCCCNC(=O)[C@H](Cc1c(F)c(F)c(F)c(F)c1F)NC(=O)OCC1c2ccccc2-c2ccccc21` [Fmoc-F5-Phe-DAP], in data set [1], the “Diameter (nm), DLS” value is on record as 202 ± 15 nm. Also, in the data set on A549 cells, the “Cell Viability (%) 4 h Dosing” value came out at 48.1 ± 5.9% and the “Cell Viability (%) Media Change After 4 h Followed by 48 h Incubation” value is given as 54.2 ± 6.2%.
`NCCCNC(=O)[C@H](Cc1ccccc1)NC(=O)OCC1c2ccccc2-c2ccccc21` [Fmoc-Phe-DAP]: in data set [1], the “Diameter (nm), DLS” value is given as 156 ± 13 nm. For the same molecule, in the data set on A549 cells, the “Cell Viability (%) 4 h Dosing” value is given as 76.3 ± 2.8%, the “Cell Viability (%) 24 h Dosing” value came to 96.5 ± 3.2%, the “Cell Viability (%) 48 h Dosing” value is recorded as 63.7 ± 5.1% and the “Cell Viability (%) Media Change After 4 h Followed by 48 h Incubation” value turned out to be 76.1 ± 4.9%.
As to `CCCCCCC(=O)N[C@@H](Cc1ccccc1)C(=O)NCCCN` [Hex-Phe-DAP], the “Diameter (nm), DLS” value in data set [1] was 50 ± 6 nm. Further, in the data set on A549 cells, the “Cell Viability (%) 4 h Dosing” value amounted to 38.9 ± 3.7%; the “Cell Viability (%) 24 h Dosing” value is 66.0 ± 5.5%; the “Cell Viability (%) 48 h Dosing” value came to 52.1 ± 4.5%; the “Cell Viability (%) Media Change After 4 h Followed by 48 h Incubation” value is 53% and 53.1 ± 4.5%.
As to `NCCCNC(=O)[C@H](Cc1ccccc1)NC(=O)CCCc1ccc2ccc3cccc4ccc1c2c34` [Pyr-Phe-DAP], the “Diameter (nm), DLS” value in data set [1] was determined as 105 ± 8 nm. Besides, in the data set with A549 cells, the “Cell Viability (%) 4 h Dosing” value was determined as 17.2 ± 1.1%, the “Cell Viability (%) 24 h Dosing” value is 2.6 ± 0.8% and the “Cell Viability (%) Media Change After 4 h Followed by 48 h Incubation” value is reported as 22.3 ± 2.7%. In addition, in the data set on A549 cells (listed as Fmoc-Pyr-DAP), the “Cell Viability (%) 4 h Dosing” value is reported as “less than 20%” and the “Cell Viability (%) 24 h Dosing” value is recorded as less than 3%.

For the origin of these results see patent US20260167972A1, “AMINO ACID DERIVATIVES AS NOVEL DELIVERY AGENTS FOR FUNCTIONAL DELIVERY OF OLIGONUCLEOTIDES” (University of Rochester, priority 2022, published 2026).
